The IC50 is the concentration that gives 50% inhibition.

The target of test [1] is T1, Full length wild-type cereblon CRBN (Homo sapiens, UniProt Q96SW2).
T1 construct: Full length wild-type cereblon CRBN (80.0 nM, 10 μL) was incubated in assay buffer
The test is described as follows: Fluorescence polarization (FP) assay indicating cereblon binding. The conditions noted are these: CRBN 80.0 nM, fluorescent probe 5 nM, FP measured after 12 hours; read-out: rFP IC50. An outline of the steps:
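Full-length wild-type human CRBN (80.0 nM) preincubated 30 min at room temperature with compound (12-point curve, 300-0.937 or 3000-9.3 nM) in HEPES pH 8.0, NaCl, TCEP, Tween 20. Thalidomide-based Cy5-type probe then added at 5 nM final; FP read after 12 h (ex 590, em 675 nm), normalized to DMSO, IC50 derived.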
For orientation: Polarisation of emitted light reports the rotation of a fluorescent probe.

In a further test the target is T2, ZFP91 (Homo sapiens, UniProt Q96JP5).
T2 construct: MM1S cells were purchased from ATCC (cat. Number CRL-2974); endogenous in cells; host or cells: MM1S (ATCC CRL-2974)
T2 sequence (Q96SW2 whole entry partner): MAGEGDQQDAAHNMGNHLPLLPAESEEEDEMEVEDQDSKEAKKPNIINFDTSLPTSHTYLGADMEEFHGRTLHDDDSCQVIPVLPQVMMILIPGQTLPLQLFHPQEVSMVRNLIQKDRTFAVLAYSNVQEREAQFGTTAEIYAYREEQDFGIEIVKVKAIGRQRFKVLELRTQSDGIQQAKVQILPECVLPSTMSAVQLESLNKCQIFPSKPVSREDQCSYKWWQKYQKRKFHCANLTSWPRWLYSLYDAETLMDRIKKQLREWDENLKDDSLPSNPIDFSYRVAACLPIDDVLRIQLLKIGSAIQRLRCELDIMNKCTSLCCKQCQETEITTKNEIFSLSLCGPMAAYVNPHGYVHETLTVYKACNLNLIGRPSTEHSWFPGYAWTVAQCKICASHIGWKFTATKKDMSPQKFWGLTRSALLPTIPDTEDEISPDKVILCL
T2 sequence (Q16531 2-1140 partner limits assumed): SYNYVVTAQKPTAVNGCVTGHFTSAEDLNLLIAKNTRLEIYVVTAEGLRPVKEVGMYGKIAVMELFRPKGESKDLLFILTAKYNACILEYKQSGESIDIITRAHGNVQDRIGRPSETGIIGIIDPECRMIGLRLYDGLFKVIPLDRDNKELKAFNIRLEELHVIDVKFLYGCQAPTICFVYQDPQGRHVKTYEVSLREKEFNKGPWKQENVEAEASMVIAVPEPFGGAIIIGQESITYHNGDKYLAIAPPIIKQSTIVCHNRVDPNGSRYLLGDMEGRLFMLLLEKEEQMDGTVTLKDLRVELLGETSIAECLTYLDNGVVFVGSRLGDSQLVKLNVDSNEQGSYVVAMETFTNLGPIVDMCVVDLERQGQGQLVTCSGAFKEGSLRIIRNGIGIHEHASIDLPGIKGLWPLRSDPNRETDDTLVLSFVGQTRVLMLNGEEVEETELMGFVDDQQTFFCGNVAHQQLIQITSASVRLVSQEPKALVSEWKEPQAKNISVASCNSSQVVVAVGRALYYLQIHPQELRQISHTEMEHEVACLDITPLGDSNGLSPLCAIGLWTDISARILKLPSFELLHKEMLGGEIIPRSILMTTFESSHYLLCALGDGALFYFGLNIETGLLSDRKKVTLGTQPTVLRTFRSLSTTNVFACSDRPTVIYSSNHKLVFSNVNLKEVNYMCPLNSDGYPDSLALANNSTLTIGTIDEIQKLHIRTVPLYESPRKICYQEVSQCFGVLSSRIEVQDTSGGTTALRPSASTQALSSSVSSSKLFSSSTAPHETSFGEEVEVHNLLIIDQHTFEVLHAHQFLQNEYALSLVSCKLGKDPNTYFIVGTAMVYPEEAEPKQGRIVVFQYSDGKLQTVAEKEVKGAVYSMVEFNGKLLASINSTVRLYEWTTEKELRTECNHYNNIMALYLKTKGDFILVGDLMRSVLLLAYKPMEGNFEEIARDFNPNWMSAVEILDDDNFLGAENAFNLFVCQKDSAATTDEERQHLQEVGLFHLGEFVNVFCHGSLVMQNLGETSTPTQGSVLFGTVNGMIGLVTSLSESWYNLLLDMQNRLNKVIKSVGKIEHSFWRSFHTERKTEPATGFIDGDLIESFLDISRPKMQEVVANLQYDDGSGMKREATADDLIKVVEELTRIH
T2 sequence (Q96JP5 2-570 limits assumed): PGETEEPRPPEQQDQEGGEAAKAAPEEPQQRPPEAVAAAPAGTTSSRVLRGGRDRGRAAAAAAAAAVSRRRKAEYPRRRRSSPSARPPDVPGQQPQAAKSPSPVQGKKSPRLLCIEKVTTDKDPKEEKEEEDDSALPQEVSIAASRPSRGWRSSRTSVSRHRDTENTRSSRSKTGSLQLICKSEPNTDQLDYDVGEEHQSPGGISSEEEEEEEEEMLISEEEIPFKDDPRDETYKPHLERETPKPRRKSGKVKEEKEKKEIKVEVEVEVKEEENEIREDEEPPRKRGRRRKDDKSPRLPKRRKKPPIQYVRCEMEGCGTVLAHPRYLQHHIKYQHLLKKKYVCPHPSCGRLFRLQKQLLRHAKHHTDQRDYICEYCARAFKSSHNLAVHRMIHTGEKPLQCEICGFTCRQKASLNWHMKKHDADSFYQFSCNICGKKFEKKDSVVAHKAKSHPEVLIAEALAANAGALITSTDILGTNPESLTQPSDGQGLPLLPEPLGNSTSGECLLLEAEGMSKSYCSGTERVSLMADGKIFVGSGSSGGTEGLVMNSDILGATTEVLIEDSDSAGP
In words: Selectivity determination by Western Blot assay in MM1S cells: ZFP91. The class given is cell-based. Set-up: key: A represents a no degradation observed at 30 μM; B represents trace degradation at 30 μM (below 20%); C represents weak degradation at 30 μM (below 50%); D represents degradation at 30 μM (>90%); E represents degradation at 3 μM (>90%); F represents degradation at 0.3 μM (>90%). The conditions noted are these: MM1S cells, 0.3, 3 and 30 μM, 6 hours. Here is the method:
(§1) CK1alpha/Ikaros/Aiolos/ZFP91 Selectivity determination by Western Blot Assay
(§2) MM1S cells were purchased from ATCC (cat. Number CRL-2974), sub-cultured in 90% RPMI 1640 with 10% FBS, supplemented with 1× P/S and incubated at 37° C., 5% CO2. Compounds were stored as 10 mM DMSO stock. For the assay, MM1S cells (3 million cells/well) were plated in 6-well plates and incubated over night. Cells were treated with respective compounds using a serial dilution: 0.3 μM, 3 μM and 30 μM as well as a vehicle only (DMSO) control for 6 hours. Media with suspension cells was subsequently transferred to 15 mL conical tubes, wells rinsed twice with ice-cold PBS and merged with cell suspension in respective 15 mL conical tube. Cells were spinned down, supernatant aspirated, pellets resuspended in ice-cold PBS and transferred to microtubes. Cells were spinned down, supernatant aspirated and pellets resuspended in 120 μL RIPA lysis buffer supplemented with protease and phosphatase inhibitors. Cell lysates were incubated on ice for 20 minutes followed by centrifugation at >20,000×g for 5 mM. Supernatants were transferred to fresh microtubes and stored at −80° C. Total protein concentration was determined using a BCA assay with a BSA standard curve and concentration of all samples was adjusted to 1 mg/mL. 25 μL 4× LDS sample buffer supplemented with 100 mM DTT was added to 75 μL sample. Samples were centrifuged (8,000×g, 1 min) and incubated at 95° C. for […] followed by another centrifugation step (8,000×g, 1 mM). 20 μL of each sample was loaded on a 4-12% gel alongside a protein molecular weight marker. Gels were run in the presence of MOPS buffer at 80 Volts for […], followed by 120 Volts for 1.5 h and proteins subsequently transferred onto nitrocellulose membranes at 20 Volts for 7 mM using an iBlot2 Gel Transfer Device. Membranes were then cut horizontally into two pieces, covering 80-50 kDa and 50-25 kDa. Blocking the membranes was performed by gently shaking in 5% (w/v) skim milk in TSB-T for 1 hr at room temperature. All primary antibodies were used at a 1/1000 in 5% (w/v) BSA dissolved in TBST and incubated with membranes over night at 4° C. After three washes with 1× TBST for 5 mM, HRP-coupled secondary antibodies diluted in 5% (w/v) BSA/TBST (Goat Anti-Rb IgG, dil. 1/10,000; Goat Anti-Mouse IgG, dil. 1/5000) were added for 1 hr at room temperature. After three washes with 1× TBST (5 minutes each), membranes were incubated with ECL reagent for 1 mM at room temperature. Chemiluminescence signals were then detected using a LAS-4000 system with default settings and signals quantified using Image Studio Lite software (version 5.2). Membrane parts previously incubated with antibody against CK1alpha were stripped off antibodies by incubating with stripping buffer for 30 minutes followed by three washed with TBST (5 mM each), blocking with 5% (w/v) skim milk for 1 hr, and incubation with primary antibody against GAPDH overnight at 4° C. Subsequent washes, incubation with secondary antibody and signal acquisition were performed as described above.
(§3) Table 5 assigns each compound a code indicating the ability for the degradation of IKZF1, IKZF3, CK1alpha and ZFP91: A, B, C, D, E or F. According to the code, A represents a no degradation observed at 30 μM, B represents trace degradation at 30 μM (below 20%), C represents weak degradation at 30 μM (below 50%), D represents degradation at 30 μM (>90%), E represents degradation at 3 μM (>90%) and F represents degradation at 0.3 μM (>90%).
Background: A western blot detects proteins with antibodies after separation by electrophoresis.

For a further test, the target named is GSPT1 (Homo sapiens, UniProt P15170+Q96SW2). In words: Selectivity determination by Western Blot assay in MM1S cells: GSPT1. Format: cell-based. Further details: MM1S cells were purchased from ATCC (cat. Number CRL-2974); endogenous in cells; host or cells: MM1S (ATCC CRL-2974). The conditions noted are these: MM1S cells, 0.3, 3 and 30 μM, 6 hours. On the procedure: [Worded in the source for another target; this target is reported under the same test.] as §1, §2, §3
GSPT1, sequence (P15170 whole entry): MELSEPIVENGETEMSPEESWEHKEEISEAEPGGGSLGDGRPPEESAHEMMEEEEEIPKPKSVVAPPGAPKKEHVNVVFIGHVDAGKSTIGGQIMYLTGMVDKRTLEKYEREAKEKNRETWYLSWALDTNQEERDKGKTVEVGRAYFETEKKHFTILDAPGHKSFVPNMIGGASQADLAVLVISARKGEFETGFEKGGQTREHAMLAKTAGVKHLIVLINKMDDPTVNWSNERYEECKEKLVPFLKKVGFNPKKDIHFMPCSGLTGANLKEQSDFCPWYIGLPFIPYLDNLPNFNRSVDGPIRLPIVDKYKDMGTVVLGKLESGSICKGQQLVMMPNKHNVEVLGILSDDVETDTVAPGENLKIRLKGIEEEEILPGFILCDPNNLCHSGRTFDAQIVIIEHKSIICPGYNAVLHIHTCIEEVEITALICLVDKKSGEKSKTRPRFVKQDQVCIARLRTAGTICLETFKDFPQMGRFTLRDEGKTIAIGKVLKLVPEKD
GSPT1, sequence (Q96SW2 whole entry): as the sequence (Q96SW2 whole entry partner) above
GSPT1, sequence (Q16531 2-1140 partner limits assumed): as the sequence (Q16531 2-1140 partner limits assumed) above

The target of a further test is T3, IKZF3 (Homo sapiens, UniProt Q9UKT9).
T3 construct: MM1S cells were purchased from ATCC (cat. Number CRL-2974); endogenous in cells; host or cells: MM1S (ATCC CRL-2974)
T3 sequence (Q96SW2 whole entry partner): as the sequence (Q96SW2 whole entry partner) above
T3 sequence (Q16531 2-1140 partner limits assumed): as the sequence (Q16531 2-1140 partner limits assumed) above
T3 sequence (Q9UKT9 whole entry): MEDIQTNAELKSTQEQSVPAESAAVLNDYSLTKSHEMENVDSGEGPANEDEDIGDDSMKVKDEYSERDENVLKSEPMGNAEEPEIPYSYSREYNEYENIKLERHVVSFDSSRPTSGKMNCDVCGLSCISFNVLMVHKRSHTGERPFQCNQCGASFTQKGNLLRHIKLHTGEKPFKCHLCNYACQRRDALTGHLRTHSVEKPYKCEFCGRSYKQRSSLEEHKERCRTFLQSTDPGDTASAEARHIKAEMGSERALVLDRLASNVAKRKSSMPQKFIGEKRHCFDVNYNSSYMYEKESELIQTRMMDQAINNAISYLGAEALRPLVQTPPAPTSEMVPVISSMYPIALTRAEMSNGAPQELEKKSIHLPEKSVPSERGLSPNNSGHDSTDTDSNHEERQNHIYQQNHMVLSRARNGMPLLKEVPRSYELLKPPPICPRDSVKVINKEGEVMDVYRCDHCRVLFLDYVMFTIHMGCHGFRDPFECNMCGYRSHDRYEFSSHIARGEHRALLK
In words: Selectivity determination by Western Blot assay in MM1S cells: IKZF3. The class given is cell-based. Set-up: key: A represents a no degradation observed at 30 μM; B represents trace degradation at 30 μM (below 20%); C represents weak degradation at 30 μM (below 50%); D represents degradation at 30 μM (>90%); E represents degradation at 3 μM (>90%); F represents degradation at 0.3 μM (>90%). The conditions noted are these: MM1S cells, 0.3, 3 and 30 μM, 6 hours. Here is the method:
as §1, §2, §3

T1 sequence (Q96SW2 whole entry): as the sequence (Q96SW2 whole entry partner) above

For the molecule `Cc1cc(C)c(NC(=O)NCc2ccc3c(c2)C(=O)N(C2CCC(=O)NC2=O)C3)cc1Cl` (stereo not shown) [Compound 85], in test [1], the IC50 was determined as 214 nM. Further, the ZFP91 degradation code entry on ZFP91 is given as “A”. The GSPT1 degradation code result at GSPT1 is listed as “E (E represents degradation at 3 μM (>90%))”. The IKZF3 degradation code result at IKZF3 is “A”.

In the case of `O=C1CCC(N2Cc3ccc(CNC(=O)Nc4cccc(CN5CCOCC5)c4)cc3C2=O)C(=O)N1` (stereo not shown) [Compound 105], the IC50 in test [1] amounted to 295 nM. Moreover, the ZFP91 degradation code result on ZFP91 is on record as “B (B represents trace degradation at 30 μM (below 20%))”. At GSPT1, the GSPT1 degradation code entry is listed as “E (E represents degradation at 3 μM (>90%))”. In addition, at IKZF3, the IKZF3 degradation code result is recorded as “A”.

Consider `Cc1ccc(NC(=O)NCc2ccc3c(c2)C(=O)N(C2CCC(=O)NC2=O)C3)c(Cl)c1Cl` (stereo not shown) [Compound 87], for which, in test [1], the IC50 is 278 nM. In addition, the ZFP91 degradation code entry on ZFP91 is “A”. Further, the GSPT1 degradation code result at GSPT1 was “E (E represents degradation at 3 μM (>90%))”. Also, the IKZF3 degradation code entry on IKZF3 is recorded as “A”.

`Cc1c(Cl)cc(NC(=O)NCc2ccc3c(c2)C(=O)N(C2CCC(=O)NC2=O)C3)cc1CC1COCOC1` (stereo not shown) [Compound 132]: in test [1], the IC50 turned out to be 381 nM. In addition, at ZFP91, the ZFP91 degradation code result is listed as “C (C represents weak degradation at 30 μM (below 50%))”. For the same molecule, the GSPT1 degradation code entry on GSPT1 is reported as “F (F represents degradation at 0.3 μM (>90%))”. Further, the IKZF3 degradation code entry on IKZF3 was “A”.

Turning to `Cc1c(Cl)cc(NC(=O)NCc2ccc3c(c2)C(=O)N(C2CCC(=O)NC2=O)C3)cc1CN(C)C` (stereo not shown) [Compound 75], the IC50 in test [1] amounted to 284 nM. Moreover, the ZFP91 degradation code entry at ZFP91 is “A”. The GSPT1 degradation code entry on GSPT1 is “E (E represents degradation at 3 μM (>90%))”. Moreover, the IKZF3 degradation code entry at IKZF3 is given as “A”.

Consider `Cc1ccc(NC(=O)NCc2ccc3c(c2)C(=O)N(C2CCC(=O)NC2=O)C3)cc1Cl` (stereo not shown) [Compound 8], for which the IC50 in test [1] was 468 nM. Further, the ZFP91 degradation code entry on ZFP91 is listed as “B (B represents trace degradation at 30 μM (below 20%))”. Moreover, the GSPT1 degradation code result on GSPT1 is reported as “F (F represents degradation at 0.3 μM (>90%))”. Also, the IKZF3 degradation code result on IKZF3 is listed as “B (B represents trace degradation at 30 μM (below 20%))”.

As to `Cc1c(Cl)cc(NC(=O)NCc2ccc3c(c2)C(=O)N(C2CCC(=O)NC2=O)C3)cc1CN1CCOCC1` (stereo not shown) [Compound 82], the IC50 in test [1] was found to be 372 nM. Further, the ZFP91 degradation code entry on ZFP91 was “A”. Moreover, the GSPT1 degradation code entry at GSPT1 was “F (F represents degradation at 0.3 μM (>90%))”. The IKZF3 degradation code result on IKZF3 was “A”.

The values are drawn from patent US20220242846A1, “ISOINDOLINONE COMPOUNDS” (Monte Rosa Therapeutics AG, priority 2019, published 2022).
